Test results as given in ChEMBL document CHEMBL1201862, “PubChem BioAssay data set” (2004).
Active and inactive are the calls of the source.

Experiments:
NADPH oxidase 1 = molecular target: T1, NADPH oxidase 1 (Homo sapiens, UniProt Q9Y5S8); format: functional, cell-based;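 also: Cell-based assay with luminescence read-out, IC50 derived from inhibitor dose-response curves; intracellular ROS from endogenous NOX1 in intact HT29 colon cancer cells; potency of inhibitors that lower the ROS luminescence signal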
T1 sequence (Q9Y5S8 whole entry): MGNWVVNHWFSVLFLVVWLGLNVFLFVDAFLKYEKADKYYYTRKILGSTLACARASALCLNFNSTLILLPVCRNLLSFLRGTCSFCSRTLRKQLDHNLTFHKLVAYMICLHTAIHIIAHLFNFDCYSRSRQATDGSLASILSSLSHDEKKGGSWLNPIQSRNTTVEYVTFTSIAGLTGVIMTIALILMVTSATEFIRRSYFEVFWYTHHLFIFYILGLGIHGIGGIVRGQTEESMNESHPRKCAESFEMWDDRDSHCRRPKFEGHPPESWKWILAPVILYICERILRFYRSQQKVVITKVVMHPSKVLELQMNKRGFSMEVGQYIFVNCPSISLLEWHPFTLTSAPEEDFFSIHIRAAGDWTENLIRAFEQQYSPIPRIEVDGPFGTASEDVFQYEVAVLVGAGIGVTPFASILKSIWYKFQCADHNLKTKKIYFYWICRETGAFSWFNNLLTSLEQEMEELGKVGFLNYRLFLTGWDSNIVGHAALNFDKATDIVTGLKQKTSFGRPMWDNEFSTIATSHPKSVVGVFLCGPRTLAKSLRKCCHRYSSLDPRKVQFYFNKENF

[1] = Luminescence Cell-Based Dose Response to Identify Activators of 5'UTR Stem-Loop Driven Prion Protein mRNA Translation in H4-C Neuroglioblastoma Cells. [Related pubchem assays: 1829 (Project Summary), 1814 (Primary HTS)]; format: functional
[2] = Luminescence Cell-Based Dose Confirmation HTS to Identify Activators of 5'UTR Stem-Loop Driven Alpha-Synuclein mRNA Translation in H4 Neuroglioblastoma Cells. [Related pubchem assays: 1829 (Project Summary), 1814 (Primary HTS)]; format: functional
[3] = insulin promoter down-regulators in MIN6 cells, imaging, high-content screening, mouse beta cells (AID 1628); format: functional
[4] = Luminescence Cell-Based Dose Response HTS to Identify Activators of Luciferase Translation or Activity in H4 […] Cells. [Related pubchem assays: 1829 (Project Summary), 1814 (Primary HTS)]; format: functional
BJ [5] = experiment: cytotoxicity toward BJ-TERT fibroblasts, dose response, cell-based, RAS-independent, luminescence (AID 1933); format: functional; conditions: Homo sapiens
[6] = cytotoxicity in MIN6 insulinoma cells, dose response, cytotoxicity control, cell-based, mouse insulinoma (AID 2122); format: functional;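 also: confirmatory high-throughput counterscreen run to flag cytotoxic compounds; mouse MIN-6 beta cells carrying an insulin promoter eGFP reporter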
BJ [7] = experiment: cells; format: functional, cell-based; conditions: Homo sapiens
[8] = Luminescence Cell-Based Dose Response to Identify Activators of Luciferase Translation or Activity in H4-C Neuroglioblastoma Cells. [Related pubchem assays: 1829 (Project Summary), 1814 (Primary HTS)]; format: functional
[9] = Luminescence-based dose response cell-based high throughput screening assay for cytotoxic compounds using the IEC-6 intestinal epithelial cell line. [Related pubchem assays: 1858 (Summary AID.), 1825 (Counterscreen.), 1907 (Confirmation screen.)]; format: functional
[10] = Luminescence Cell-Based Dose Confirmation to Identify Activators of 5'UTR Stem-Loop Driven Alpha-Synuclein mRNA Translation in H4 Neuroglioblastoma Cells. [Related pubchem assays: 1829 (Project Summary), 1814 (Primary HTS)]; format: functional
BJ [11] = experiment: cytotoxicity toward BJ-TERT-LT-ST fibroblasts, dose response, cell-based, RAS-independent, luminescence (AID 1935); format: functional; conditions: Homo sapiens;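 also: BJ fibroblasts immortalized with TERT plus LT and ST oncogenes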
[12] = cytotoxicity toward DRD oncogenic fibroblasts, dose response, cell-based, non-viral oncogenic, luminescence (AID 1934); format: functional; conditions: Homo sapiens
BJ [13] = experiment: cytotoxicity toward Ras-transformed BJeLR fibroblasts, dose response, cell-based, alamar blue fluorescence, cherrypicked samples (AID 2631); format: functional; conditions: Homo sapiens;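 also: confirmatory dose-response assay in RAS-dependent BJ fibroblasts engineered with TERT, LT and ST, with cytotoxicity read by fluorescence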
[14] = Shn3 3'UTR reporter inhibitors, dose response, cell-based, Clone20 osteoblasts, firefly luciferase, cherry-picked (AID 624132); format: functional;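 also: firefly luciferase luminescence from reporter carrying the Shn3 3'UTR in osteoblasts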
[15] = control 3'UTR Renilla luciferase suppression, dose response, counter-screen for Shn3 inhibitor project, cell-based, Clone20-Shn3RL, cherry-picked (AID 624133); format: functional
[16] = inhibitors of HIV Env-driven cell fusion, dose response, cherry-pick (AID 652057); format: functional, cell-based
[17] = CEM21 lymphoblast cell cytotoxicity, dose response, cytotoxicity control for viral fusion inhibitor project, CellTiter-Glo luminescence, cherry-picked (AID 652042); format: functional, cell-based;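 also: potency for signal decrease meaning cytotoxicity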
[18] = ZM109 Env clade C HIV-1 fusion inhibitors, dose response, HeLa effector, CEM target cells, luciferase, cherry-pick (AID 652058); format: functional, cell-based
[19] = off-target signal loss in HeLa-CEM21 co-culture – HeLa F-luc CTL cells, cherry-picked, counter-screen for HIV-1 Env fusion inhibitor project, dose response (AID 652040); format: functional, cell-based;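 also: potency for signal decrease marking cytotoxic or nonspecific inhibition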
[20] = inhibitors of clade B AD8 Env fusion, dose response, cell-based, cherry-pick (AID 652062); format: functional;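 also: luciferase signal from cell-cell fusion driven by HIV-1 clade B AD8 Env; potency is for inhibitors of fusion seen as a drop in luminescence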
[21] = molecular target: COUP transcription factor 2 (Homo sapiens, UniProt P24468); experiment: Luminescence-based cell-based high throughput dose response assay to identify inhibitors of COUP-TFII (NR2F2).; format: functional;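 also: HEK293 cells transiently cotransfected with COUP-TFII expression vector and reporter; luciferase reporter luminescence driven by COUP-TFII from the pX2-168 reporter plasmid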
Sequence of COUP transcription factor 2 (P24468 whole entry): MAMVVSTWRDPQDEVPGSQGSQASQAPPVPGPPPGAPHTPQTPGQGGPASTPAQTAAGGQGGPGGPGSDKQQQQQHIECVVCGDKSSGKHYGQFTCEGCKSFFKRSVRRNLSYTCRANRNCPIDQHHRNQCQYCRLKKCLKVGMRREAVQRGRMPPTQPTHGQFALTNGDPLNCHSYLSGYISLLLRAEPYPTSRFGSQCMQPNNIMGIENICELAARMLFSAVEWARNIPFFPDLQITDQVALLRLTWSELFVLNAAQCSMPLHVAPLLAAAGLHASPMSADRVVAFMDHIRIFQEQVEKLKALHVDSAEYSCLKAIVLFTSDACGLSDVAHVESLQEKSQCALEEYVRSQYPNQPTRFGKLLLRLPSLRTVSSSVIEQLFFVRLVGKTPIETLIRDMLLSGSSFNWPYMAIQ

[22] = molecular target: Induced myeloid leukemia cell differentiation protein Mcl-1 (Homo sapiens, UniProt Q07820); experiment: MCL1-BIM BH3 interaction inhibitors, dose response, biochemical, fluorescence polarization, BIM-BH3 peptide, 1536-well (AID 2217)
Sequence of Induced myeloid leukemia cell differentiation protein Mcl-1 (Q07820 whole entry): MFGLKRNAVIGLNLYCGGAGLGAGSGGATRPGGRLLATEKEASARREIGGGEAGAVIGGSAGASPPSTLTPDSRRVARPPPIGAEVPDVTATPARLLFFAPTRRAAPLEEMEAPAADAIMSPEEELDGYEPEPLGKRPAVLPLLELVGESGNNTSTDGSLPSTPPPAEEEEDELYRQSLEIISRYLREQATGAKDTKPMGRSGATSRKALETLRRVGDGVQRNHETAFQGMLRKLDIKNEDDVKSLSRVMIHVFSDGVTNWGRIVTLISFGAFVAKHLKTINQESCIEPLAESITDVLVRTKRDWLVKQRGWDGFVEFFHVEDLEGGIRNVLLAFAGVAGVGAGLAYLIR

Bcl-2-like protein 1 = Bcl-2-like protein 1 (Homo sapiens, UniProt Q07817); experiment: BCL-XL inhibitors, dose response, selectivity assay for MCL1 inhibitor project, biochemical, fluorescence polarization, 1536-well (AID 2218)
Sequence of Bcl-2-like protein 1 (Q07817 whole entry): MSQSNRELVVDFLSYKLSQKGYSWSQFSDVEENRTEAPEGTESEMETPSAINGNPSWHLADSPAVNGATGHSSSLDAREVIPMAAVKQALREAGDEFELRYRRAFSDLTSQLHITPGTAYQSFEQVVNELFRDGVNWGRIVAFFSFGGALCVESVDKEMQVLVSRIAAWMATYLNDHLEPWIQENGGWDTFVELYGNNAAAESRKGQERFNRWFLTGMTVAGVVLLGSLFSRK

Caspase-6 = molecular target: T2, Caspase-6 (Homo sapiens, UniProt P55212); experiment: human caspase-6 inhibitors, dose response, biochemical, VEID-R110 fluorescence, cherry-pick (AID 720632)
T2 sequence (P55212 whole entry): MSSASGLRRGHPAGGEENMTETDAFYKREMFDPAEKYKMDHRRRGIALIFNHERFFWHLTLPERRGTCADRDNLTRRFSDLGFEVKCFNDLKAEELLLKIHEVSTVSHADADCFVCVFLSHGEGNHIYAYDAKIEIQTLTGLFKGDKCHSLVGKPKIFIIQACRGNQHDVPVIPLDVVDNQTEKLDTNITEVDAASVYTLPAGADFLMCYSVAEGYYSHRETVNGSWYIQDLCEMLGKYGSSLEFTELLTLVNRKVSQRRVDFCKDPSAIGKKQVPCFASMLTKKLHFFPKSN

SMILES: O=C(Nc1ccc(NC(=O)c2ccccc2O)cc1)Nc1ccc(OCc2ccccc2)cc1
- IC50 (NADPH oxidase 1): > 17 µM (not active)

SMILES: O=C1N(c2ccccc2)C[C@@H]2C[C@@H](c3cc4ccccc4o3)N3CCC[C@@]123
- EC50 [1]: 239 nM (inconclusive)
- EC50 [2]: > 120 µM (not active)
- IC50 [3]: 441 nM (active)
- EC50 [4]: > 120 µM (not active)
- EC50 (BJ [5]): 1.37 µM (active)
- IC50 [6]: 535 nM (active)
- EC50 (BJ [7]): 2.35 µM (active)
- EC50 [8]: 266 nM (inconclusive)
- IC50 [9]: 189 nM (active)
- EC50 [10]: 1.6 µM (active)
- EC50 (BJ [11]): 318 nM (inconclusive)
- EC50 [12]: 480 nM (active)
- EC50 (BJ [13]): 205 nM (active)
- AC50 [14]: 536 nM (active)
- AC50 [15]: 29.9 µM (active)
- AC50 [16]: 1.01 µM (active)
- AC50 [17]: 534 nM (active)
- AC50 [18]: 1.3 µM (active)
- AC50 [19]: 1.26 µM (active)
- AC50 [20]: 1.27 µM (active)
- IC50 [21]: 737 nM (active)

SMILES: C/C(=N\NC(=O)c1cc(O)ccc1O)c1cccc(NC(=O)c2ccc(Cl)cc2)c1
- IC50 [22]: 59.1 µM (not active)
- IC50 (Bcl-2-like protein 1): > 109 µM (not active)
- AC50 (Caspase-6): 8.91 µM (active)
